{"source": "patent US20060281088A1", "about": "“Markers for lxr activation” (priority 2003, published 2006)", "key": {"THP1 macrophages [1]": {"system": "THP1 macrophages", "assay": "Gene expression measurement by Gene Chip Microarray in THP1 macrophages", "format": "cell-based, human", "conditions": "Gene Chip Microarray analysis, result in words", "description": "Cells were incubated at 37° C. and 5.2% CO2. For experimental treatments, cells were seeded at a density of 1×10^6/ml in 6-well plates in medium containing 100 nM phorbol 12-myristate 13-acetate (PMA) for 72 hours to fully differentiate them into adherent macrophages. The medium was then replaced by culture medium containing PMA with vehicle (DMSO) or test compound for 6 or 24 hours prior to harvesting. Total RNA was isolated using the TriZol reagent (Life Technologies) or the RNeasy mini kit (Qiagen) according to the manufacturer's protocols. To remove contaminating DNA, the samples were treated with RNAse free DNAse (GibCo).\nSynthesis of first and second strand cDNA were performed using the SuperScript Choice Gene Chip Kit (Life Technologies) and reagents from Gibco. The double stranded cDNA, containing an incorporated T7 RNA polymerase binding site, was purified by extraction with a mix of phenol:chloroform:isoamylalcohol (Life Technologies). The organic and aqueous phases were separated by Phase Lock Gel (Eppendorf) and double-stranded cDNA was recovered by precipitation according to the manufacturer's protocol and then resuspended in water.\nThe double-stranded cDNA was converted to biotin-labeled cRNA by in vitro transcription (IVT) using a T7 kit (Ambion) and biotin-containing ribonucleotides (Enzo-LOXO GmbH). […]"}, "THP1 macrophages [2]": {"system": "THP1 macrophages", "assay": "Gene expression measurement by Taqman quantitative RT-PCR in THP1 macrophages", "format": "cell-based, human", "conditions": "result in words", "excerpt": "Three oligonucleotides are used: a forward primer, a reverse primer, and a probe. All of them are specific for the target and are able to bind to it. The TaqMan assay uses a probe technology that exploits 5′→3′-nuclease activity of an enzyme, the most commonly used being Taq polymerase. The assay efficiency is largely dependent on this 5′→3′ nuclease activity. In this regard one should be careful in choosing a suitable polymerase. […] The probe is an oligonucleotide with a reporter dye at the 5′ end and a quencher dye at the 3′ end. The fluorescent reporter dye is attached covalently to the 5′ end and can be FAM (6-carboxyfluorescein), TET (tetrachloro-6-carboxyfluorescein), JOE (2,7-dimethoxy-4,5-dichloro-6-carboxyfluorescein), HEX (hexacholoro-6-carboxyfluorescein), or VIC. The reporter is quenched by TAMRA (6-carboxytetramethylrhodamine), bound to the 3′ end by a linker arm. […] An advantage of using DABCYL in the TaqMan probes is its reduced autofluorescence compared with TAMRA When the probe is intact the quencher dye absorbs the fluorescence of the reporter dye due to the proximity between both. […] By the 5′-exonuclease activity of the Taq:polymerase the probe is hydrolyzed and the reporter dye is separated from the quencher, resulting in an increase in fluorescence emission. […]"}}}
{"smiles": "O=S(=O)(c1ccccc1)N(CC(F)(F)F)c1ccc(C(O)(C(F)(F)F)C(F)(F)F)cc1", "note": "[T0901317]", "values": [{"measurement": "Gene expression changes of the listed marker genes (ABCA1, ABCG1, APOC1, APOE, ASM3A, C3F, CDC42EP4, CXCR4 ... PRKCI)", "setting": "THP1 macrophages [1]", "value": "strong induction"}, {"measurement": "Gene expression changes for ABCA1, ABCG1, APOC1, APOE, ASM3A, CDC42EP4, CXCR4, FASN, LDLR, NR1H3, VLDLR", "setting": "THP1 macrophages [2]", "value": "robust and significant increase in expression"}]}
